What was measured:
Test in all cases: relative viability (nuclei count vs DMSO), 5 days (fraction); higher = more cells survive
Carboplatin + Dasatinib = compound: C1CC(C1)(C(=O)O)C(=O)O.[NH2-].[NH2-].[Pt+2] [Carboplatin] + Cc1nc(Nc2ncc(C(=O)Nc3c(C)cccc3Cl)s2)cc(N2CCN(CCO)CC2)n1 [Dasatinib] (partner 0.075 µM)
How it was run: (§1)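 For relative viability, nuclei counts in treated wells were divided by those in vehicle wells. Lung cancer cell lines had been pin-tool dosed in 1536-well plates the day after seeding and cultured for 5 days, then fixed and stained in one step (final 0.05% Triton X-100, 1% formaldehyde, 1 ug/ml Hoechst) and imaged at 4×. Doses were one drug alone or a fixed anchor-drug dose plus five library-drug doses (not always all listed) in √10 steps, and values are duplicate-plate medians.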

GSK126 + Palbociclib = compound: CC[C@H](C)N1C=C(C2=C(C=C(C=C21)C3=CN=C(C=C3)N4CCNCC4)C(=O)NCC5=C(C=C(NC5=O)C)C)C [GSK126] + CC(=O)c1c(C)c2cnc(Nc3ccc(N4CCNCC4)cn3)nc2n(C2CCCC2)c1=O [Palbociclib] (partner 0.5 µM)
How it was run: as §1

GSK126 + Navitoclax = compound: CC[C@H](C)N1C=C(C2=C(C=C(C=C21)C3=CN=C(C=C3)N4CCNCC4)C(=O)NCC5=C(C=C(NC5=O)C)C)C [GSK126] + CC1(C)CCC(c2ccc(Cl)cc2)=C(CN2CCN(c3ccc(C(=O)NS(=O)(=O)c4ccc(N[C@H](CCN5CCOCC5)CSc5ccccc5)c(S(=O)(=O)C(F)(F)F)c4)cc3)CC2)C1 [Navitoclax] (partner 0.5 µM)
How it was run: as §1

MLN4924 + AZD7762 = compound: NS(=O)(=O)OC[C@@H]1C[C@@H](n2ccc3c(N[C@H]4CCc5ccccc54)ncnc32)C[C@@H]1O [MLN4924] + NC(=O)Nc1cc(-c2cccc(F)c2)sc1C(=O)N[C@H]1CCCNC1 [AZD7762] (partner 0.2 µM)
How it was run: as §1

Row | Cell Line | relative viability (Carboplatin + Dasatinib; first compound 0.08 µM) | relative viability (Carboplatin + Dasatinib; first compound 0.253 µM) | relative viability (Carboplatin + Dasatinib; first compound 0.8 µM) | relative viability (Carboplatin + Dasatinib; first compound 2.53 µM) | relative viability (Carboplatin + Dasatinib; first compound 8 µM) | relative viability (GSK126 + Palbociclib; first compound 0.08 µM) | relative viability (GSK126 + Palbociclib; first compound 0.253 µM) | relative viability (GSK126 + Palbociclib; first compound 0.8 µM) | relative viability (GSK126 + Palbociclib; first compound 2.53 µM) | relative viability (GSK126 + Palbociclib; first compound 8 µM) | relative viability (GSK126 + Navitoclax; first compound 0.08 µM) | relative viability (GSK126 + Navitoclax; first compound 0.253 µM) | relative viability (GSK126 + Navitoclax; first compound 0.8 µM) | relative viability (GSK126 + Navitoclax; first compound 2.53 µM) | relative viability (GSK126 + Navitoclax; first compound 8 µM) | relative viability (MLN4924 + AZD7762; first compound 0.04 µM) | relative viability (MLN4924 + AZD7762; first compound 0.1265 µM) | relative viability (MLN4924 + AZD7762; first compound 0.4 µM) | relative viability (MLN4924 + AZD7762; first compound 1.265 µM) | relative viability (MLN4924 + AZD7762; first compound 4 µM)
1 | HARA | 0.205 | 0.252 | 0.209 | 0.213 | 0.302 | 0.325 | 0.238 | 0.249 | 0.296 | 0.279 | 1.18 | 1.11 | 1.1 | 1.15 | 1.14 | 0.42 | 0.328 | 0.415 | 0.0749 | 0.106
2 | HCC-15 | 0.69 | 0.645 | 0.621 | 0.591 | 0.407 | 0.759 | 0.855 | 0.692 | 0.573 | 0.671 | 0.719 | 0.662 | 0.658 | 0.676 | 0.623 | 1.13 | 0.971 | 0.645 | 0.0981 | 0.125
3 | HCC-78 | 0.576 | 0.425 | 0.372 | 0.416 | 0.489 | 0.473 | 0.38 | 0.497 | 0.461 | 0.492 | 1.01 | 0.711 | 0.832 | 0.741 | 0.804 | 0.665 | 0.754 | 0.981 | 0.265 | 0.251
4 | HCC-366 | 0.609 | 0.619 | 0.624 | 0.594 | 0.403 | 0.391 | 0.399 | 0.425 | 0.407 | 0.374 | 1.17 | 1.02 | 1.09 | 1.12 | 1.05 | 0.312 | 0.56 | 0.526 | 0.297 | 0.0472
5 | HCC-827 | 0.327 | 0.326 | 0.337 | 0.35 | 0.432 | 0.492 | 0.54 | 0.486 | 0.483 | 0.469 | 1.07 | 1.03 | 0.987 | 0.967 | 0.95 | 0.687 | 0.556 | 0.374 | 0.195 | 0.151
6 | HOP-62 | 0.711 | 0.711 | 0.645 | 0.728 | 0.575 | 0.501 | 0.372 | 0.468 | 0.398 | 0.444 | 1.01 | 1.06 | 1.06 | 0.916 | 0.979 | 0.438 | 0.263 | 0.111 | 0.051 | 0.0648
7 | LC-2-ad | 0.701 | 0.567 | 0.414 | 0.416 | 0.277 | 0.497 | 0.489 | 0.479 | 0.481 | 0.478 | 0.468 | 0.383 | 0.506 | 0.477 | 0.484 | 0.376 | 0.9 | 0.837 | 0.376 | 0.236
8 | LCLC-97TM1 | 0.848 | 0.921 | 0.844 | 0.808 | 0.647 | 0.283 | 0.265 | 0.232 | 0.308 | 0.255 | 0.587 | – | 0.379 | 0.525 | 0.798 | 0.338 | 0.22 | 0.0891 | 0.0605 | 0.0696
9 | LK-2 | 0.275 | 0.252 | 0.295 | 0.197 | 0.379 | 0.682 | 0.657 | 0.738 | 0.558 | 0.681 | 0.957 | 0.772 | 0.819 | 0.789 | 0.756 | 0.329 | 0.307 | 0.309 | 0.124 | 0.155
10 | LOU-NH91 | 0.674 | 0.578 | 0.542 | 0.568 | 0.538 | 0.449 | 0.541 | 0.523 | 0.536 | 0.57 | 0.732 | 0.656 | 0.68 | 0.751 | 0.706 | 0.785 | 0.95 | 0.823 | 0.645 | 0.459
11 | LU99A | 0.562 | 0.559 | 0.511 | 0.39 | 0.384 | 0.444 | 0.439 | 0.379 | 0.39 | 0.451 | 0.926 | 0.812 | 0.705 | 0.777 | 0.766 | 0.28 | 0.214 | 0.185 | 0.154 | 0.114
12 | LXF-289 | 0.327 | 0.24 | 0.223 | 0.264 | 0.232 | 0.586 | 0.625 | 0.588 | 0.602 | 0.629 | 0.979 | 0.912 | 0.935 | 0.986 | 0.981 | 1.06 | 0.775 | 0.691 | 0.113 | 0.0848
13 | NCI-H23 | 0.918 | 0.854 | 0.673 | 0.534 | 0.663 | 0.6 | 0.583 | 0.565 | 0.628 | 0.515 | 0.847 | 0.837 | 0.895 | 0.996 | 1.03 | 0.304 | 0.263 | 0.282 | 0.213 | 0.28
14 | NCI-H322M | 0.281 | 0.243 | 0.255 | 0.256 | 0.257 | 0.568 | 0.488 | 0.505 | 0.485 | 0.45 | 1.19 | 1.35 | 1.11 | 1.22 | 1.17 | 0.688 | 0.643 | 0.64 | 0.317 | 0.39
15 | NCI-H441 | 0.665 | 0.798 | 0.546 | 0.627 | 0.47 | 0.193 | 0.232 | 0.21 | 0.243 | 0.257 | 0.948 | 0.429 | 0.578 | 0.878 | 0.678 | 1.23 | 1.12 | 0.722 | 0.452 | 0.173
16 | NCI-H460 | 0.551 | 0.429 | 0.464 | 0.427 | 0.183 | 0.171 | 0.199 | 0.154 | 0.148 | 0.173 | 1.14 | 1.17 | 1.17 | 1.1 | 1.18 | 0.575 | 0.772 | 0.621 | 0.206 | 0.0543
17 | NCI-H647 | 0.196 | 0.18 | 0.216 | 0.164 | 0.161 | 0.482 | 0.366 | 0.363 | 0.382 | 0.5 | 1.14 | 1.05 | 1.07 | 1.11 | 1.15 | 0.412 | 0.334 | 0.0972 | 0.0222 | 0.0279
18 | NCI-H727 | 0.472 | 0.356 | 0.374 | 0.364 | 0.376 | 0.681 | 0.641 | 0.67 | 0.75 | 0.659 | 0.444 | 0.354 | 0.51 | 0.408 | 0.361 | 0.574 | 0.432 | 0.402 | 0.372 | 0.242
19 | NCI-H838 | 0.306 | 0.3 | 0.331 | 0.319 | 0.275 | 0.264 | 0.223 | 0.202 | 0.212 | 0.234 | 1.15 | 1.18 | 1.09 | 1.1 | 0.978 | 0.916 | 0.82 | 0.737 | 0.589 | 0.618
20 | NCI-H1355 | 0.729 | 0.759 | 0.776 | 0.667 | 0.656 | 0.446 | 0.365 | 0.417 | 0.405 | 0.413 | 0.985 | 1.07 | 0.911 | 1.01 | 1.02 | 0.833 | 0.875 | 0.788 | 0.441 | 0.234
21 | NCI-H1395 | 0.423 | 0.367 | 0.392 | 0.42 | 0.516 | 0.656 | 0.568 | 0.597 | 0.681 | 0.505 | 1.59 | 1.04 | 1.09 | 1.33 | 0.95 | 0.493 | 0.416 | 0.383 | 0.408 | 0.331
22 | NCI-H1437 | 0.619 | 0.411 | 0.428 | 0.411 | 0.325 | 0.313 | 0.278 | 0.293 | 0.279 | 0.316 | 1.14 | 1.11 | 1.04 | 1.03 | 1.03 | 0.999 | 0.852 | 0.855 | 0.589 | 0.285
23 | NCI-H1651 | 0.436 | 0.397 | 0.344 | 0.435 | 0.216 | 0.493 | 0.512 | 0.515 | 0.537 | 0.514 | 1.19 | 0.943 | 1.07 | 1.07 | 1.2 | 0.495 | 0.53 | 0.47 | 0.436 | 0.158
24 | NCI-H1666 | 0.836 | 0.774 | 0.589 | 0.533 | 0.561 | 0.642 | 0.613 | 0.6 | 0.636 | 0.692 | 1.08 | 0.982 | 1.02 | 0.833 | 1.12 | 0.726 | 0.755 | 0.614 | 0.356 | 0.362
25 | NCI-H1734 | 0.471 | 0.449 | 0.454 | 0.463 | 0.443 | 0.384 | 0.348 | 0.342 | 0.375 | 0.333 | 0.895 | 0.845 | 0.843 | 0.881 | 0.86 | 0.863 | 0.641 | 0.204 | 0.104 | 0.111
26 | NCI-H1755 | 0.451 | 0.441 | 0.395 | 0.462 | 0.452 | 0.465 | 0.394 | 0.458 | 0.43 | 0.445 | 1.07 | 0.996 | 0.999 | 0.997 | 0.969 | 0.604 | 0.682 | 0.666 | 0.411 | 0.255
27 | NCI-H1792 | 0.831 | 0.776 | 0.816 | 0.692 | 0.62 | 0.642 | 0.627 | 0.659 | 0.661 | 0.629 | 0.733 | 0.644 | 0.655 | 0.664 | 0.658 | 0.914 | 0.866 | 1.21 | 0.413 | 0.242
